Assay results from patent publication US7074765B2, “Synthetic peptide analogs of Arg-Pro-Pro-Gly-Phe as selective inhibitors of thrombin and thrombin activation of protease activated receptors 1 and 4” (The Regents of the University of Michigan, priority 2003, dated 2006).

Columns and labels:
VCaP cells = assay: α-thrombin-induced intracellular calcium mobilization in VCaP cells; format: cell-based; conditions: 2 nM α-thrombin
Procedure: FIG. 13 examines the influence of MAP4-TH146 on thrombin-induced calcium mobilization in two prostate cancer cell lines that functionally express PAR 1. In Panel A, the influence of MAP4-TH146 on 2 nM α-thrombin-induced intracellular calcium mobilization in VCaP cells. Calcium flux is abolished by […]. At 6.25 μM MAP4-TH146, there is full recovery of thrombin-induced calcium flux. In Panel B, the influence of MAP4-TH146 on 2 nM α-thrombin-induced intracellular calcium mobilization in PC3 cells. Calcium flux is abolished by 200 μM MAP4-TH146. At 1.56 μM MAP4-TH146, calcium flux recovers.

[1] = tested on: normal human citrated plasma; assay: prothrombin time (PT); format: biochemical; conditions: normal human plasma; p<0.05
Procedure: The influence of the various peptide formulations used in the present invention on established coagulation-based assays was determined. The activated partial thromboplastin time (APTT) is performed by mixing 0.05 ml normal human citrated plasma with 0.05 ml activated partial thromboplastin reagent purchased from Organon Teknika, Research Triangle Park, N.C. in the absence or presence of a peptide inhibitor. After incubation for 5 min at 37° C., the mixture is recalcified with 0.05 ml of 30 mM calcium chloride and the time to clot formation is measured in an Amelung KC4A instrument (Sigma Chemical Corp, St. Louis, Mo.) (Hasan et al. Thrombosis and Haemostasis. 82, 1182–1187 (1999)). The prothrombin time (PT) is performed by mixing 0.05 ml normal human citrated plasma with 0.05 ml Simplastin (Organon Teknika, Research Triangle Park, N.C.) followed by incubation for 3 min at 37° C. in the absence or presence of a peptide inhibitor. At the addition of 0.05 ml of 30 mM calcium chloride, the time to clot formation is measured in an KC4A instrument (Sigma Chemical Corp, St. Louis, Mo.) (Hasan et al. Thrombosis and Haemostasis. 82, 1182–1187 (1999)). The thrombin clotting time (TCT) is performed by adding 0.1 ml normal human citrated plasma in the absence or presence of a peptide inhibitor and 0.05 ml of a α-thrombin solution such that the final concentration of the thrombin in the entire mixture was 1 nM. Upon addition of the thrombin, the time to clot formation is measured in an KC4A instrument (Sigma Chemical Corp, St. Louis, Mo.). In FIG. 5, peptide TH146 produces a significant prolongation (p<0.05) of the activated partial thromboplastin time at 15 μM, of the prothrombin time at 60 μM, and the thrombin clotting time at 15 μM. In FIG. 6, peptide MAP4-TH146 produced a significant prolongation (p<0.05) of the activated partial thromboplastin time at 0.195 μM, of the prothrombin time at 3.125 μM, and the thrombin clotting time at 0.39 μM.

## β-Ala-Lys-2Lys-4(D-Arg-Oic-Pro-Gly-Phe) [MAP4-rOicPGF]
VCaP cells; 6.25 μM peptide
  effect on thrombin-induced calcium flux: full recovery
VCaP cells; 200 (unit not given) peptide
  effect on thrombin-induced calcium flux: abolished
[1]
  concentration giving significant prolongation of the PT: 3.125 µM
